Measured values published in ChEMBL document CHEMBL3091438, “Discovery and characterisation of hydrazines as inhibitors of the immune suppressive enzyme, indoleamine 2,3-dioxygenase 1 (IDO1)” (Bioorg Med Chem, 2013).

How the values were obtained:
[1] = molecular target: T1, Indoleamine 2,3-dioxygenase 1 (Homo sapiens, UniProt P14902); test: Inhibition of recombinant human IDO1 expressed in Escherichia coli EC538 using L-tryptophan as substrate after 1 hr
Target sequence in this assay (P14902 whole entry): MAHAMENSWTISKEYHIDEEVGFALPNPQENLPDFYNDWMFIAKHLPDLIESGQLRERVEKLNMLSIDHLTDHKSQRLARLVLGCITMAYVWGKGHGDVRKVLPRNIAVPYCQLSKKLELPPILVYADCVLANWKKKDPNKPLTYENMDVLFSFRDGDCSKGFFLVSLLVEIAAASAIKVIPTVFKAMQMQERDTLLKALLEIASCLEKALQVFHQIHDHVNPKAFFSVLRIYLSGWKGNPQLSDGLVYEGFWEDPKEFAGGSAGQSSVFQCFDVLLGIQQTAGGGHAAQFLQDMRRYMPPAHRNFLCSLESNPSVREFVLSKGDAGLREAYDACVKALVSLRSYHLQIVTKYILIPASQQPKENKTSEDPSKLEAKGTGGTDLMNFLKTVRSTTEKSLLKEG

[2] = molecular target: T1, Indoleamine 2,3-dioxygenase 1; test: Inhibition of recombinant human IDO1 expressed in Escherichia coli EC538 using L-tryptophan as substrate at 0.1 mM after 1 hr relative to control
Target sequence in this assay (P14902 whole entry, looked up): as the sequence (P14902 whole entry) above

[3] = Cytotoxicity against mouse LLTC cells at IC50 by MTT assay; format: cell-based
[4] = molecular target: T1, Indoleamine 2,3-dioxygenase 1; test: Inhibition of human IDO1 expressed in mouse LLTC cells using L-tryptophan as substrate after 24 hrs; format: cell-based
Target sequence in this assay (P14902 whole entry): as above

[5] = molecular target: Indoleamine 2,3-dioxygenase 1 (Mus musculus, UniProt P28776); test: Inhibition of mouse IDO1 expressed in mouse LLTC cells using L-tryptophan as substrate after 24 hrs; format: cell-based
[6] = molecular target: T1, Indoleamine 2,3-dioxygenase 1; test: Ratio of 2-hydrazinobenzothiazole IC50 to compound IC50 for recombinant human IDO1
Target sequence in this assay (P14902 whole entry, looked up): as the sequence (P14902 whole entry) above

Sequence of Indoleamine 2,3-dioxygenase 1 (Mus musculus, UniProt P28776) (P28776 whole entry): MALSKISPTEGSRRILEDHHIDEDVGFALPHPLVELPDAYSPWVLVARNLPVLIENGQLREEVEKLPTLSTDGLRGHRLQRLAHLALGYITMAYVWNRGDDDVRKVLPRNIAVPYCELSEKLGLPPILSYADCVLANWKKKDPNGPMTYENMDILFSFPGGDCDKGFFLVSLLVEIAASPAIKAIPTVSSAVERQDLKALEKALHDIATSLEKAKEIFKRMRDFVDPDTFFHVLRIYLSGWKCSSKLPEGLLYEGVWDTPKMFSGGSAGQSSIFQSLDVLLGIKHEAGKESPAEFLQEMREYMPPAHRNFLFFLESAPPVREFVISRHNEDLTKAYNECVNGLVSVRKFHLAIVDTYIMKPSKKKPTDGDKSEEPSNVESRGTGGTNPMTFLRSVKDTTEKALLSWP

Row | SMILES | IC50 [1] [µM] | inhibition [2] [%] | other results
1 | c1ccc2scnc2c1 [BENZO[D]THIAZOLE] | 652 | – | –
2 | N#CCCN(N)c1nc2ccccc2s1 | – | 2 | –
3 | O=C(O)/C=N/Nc1nc2ccccc2s1 | – | 13 | –
4 | NNc1nc2cc(C(F)(F)F)ccc2s1 | – | 46 | –
5 | Nc1nc2ccc([N+](=O)[O-])cc2s1 | > 500 | – | –
6 | NNc1nc2ccccc2s1 | 8 | 91 | Activity [3]: Non-toxic; IC50 [4]: 62.3 µM; IC50 [5]: 50.5 µM
7 | Cc1ccc2nc(NN)sc2c1 | – | 37 | –
8 | CC(C)=NNc1nc2ccccc2s1 | – | 30 | –
9 | NNc1ccccc1 [PHENYLHYDRAZINE] | 0.25 | – | Ratio IC50 [6]: 32; Activity [3]: Non-toxic; IC50 [4]: 1.3 µM; IC50 [5]: 0.2 µM
10 | c1ccc2sc(SSc3nc4ccccc4s3)nc2c1 [BENZOTHIAZYL DISULFIDE] | > 500 | – | –
11 | NNC(=O)c1ccc2nc(NN)sc2c1 | – | -1 | –
12 | Sc1nc2ccccc2s1 [2-MERCAPTOBENZOTHIAZOLE] | 126 | – | –
13 | NNc1nc2cc(Cl)ccc2s1 | 1.5 | 86 | –
